The values that follow come from patent publication US10758534B2 (Vertex Pharmaceuticals Incorporated, priority 2014, dated 2020).

In this assay the target is T1, F508del (Homo sapiens, UniProt P13569, DEL508-508).
T1 construct: expressed in transfected cells
T1 sequence (P13569 with tags, fused parts or gaps DEL508-508): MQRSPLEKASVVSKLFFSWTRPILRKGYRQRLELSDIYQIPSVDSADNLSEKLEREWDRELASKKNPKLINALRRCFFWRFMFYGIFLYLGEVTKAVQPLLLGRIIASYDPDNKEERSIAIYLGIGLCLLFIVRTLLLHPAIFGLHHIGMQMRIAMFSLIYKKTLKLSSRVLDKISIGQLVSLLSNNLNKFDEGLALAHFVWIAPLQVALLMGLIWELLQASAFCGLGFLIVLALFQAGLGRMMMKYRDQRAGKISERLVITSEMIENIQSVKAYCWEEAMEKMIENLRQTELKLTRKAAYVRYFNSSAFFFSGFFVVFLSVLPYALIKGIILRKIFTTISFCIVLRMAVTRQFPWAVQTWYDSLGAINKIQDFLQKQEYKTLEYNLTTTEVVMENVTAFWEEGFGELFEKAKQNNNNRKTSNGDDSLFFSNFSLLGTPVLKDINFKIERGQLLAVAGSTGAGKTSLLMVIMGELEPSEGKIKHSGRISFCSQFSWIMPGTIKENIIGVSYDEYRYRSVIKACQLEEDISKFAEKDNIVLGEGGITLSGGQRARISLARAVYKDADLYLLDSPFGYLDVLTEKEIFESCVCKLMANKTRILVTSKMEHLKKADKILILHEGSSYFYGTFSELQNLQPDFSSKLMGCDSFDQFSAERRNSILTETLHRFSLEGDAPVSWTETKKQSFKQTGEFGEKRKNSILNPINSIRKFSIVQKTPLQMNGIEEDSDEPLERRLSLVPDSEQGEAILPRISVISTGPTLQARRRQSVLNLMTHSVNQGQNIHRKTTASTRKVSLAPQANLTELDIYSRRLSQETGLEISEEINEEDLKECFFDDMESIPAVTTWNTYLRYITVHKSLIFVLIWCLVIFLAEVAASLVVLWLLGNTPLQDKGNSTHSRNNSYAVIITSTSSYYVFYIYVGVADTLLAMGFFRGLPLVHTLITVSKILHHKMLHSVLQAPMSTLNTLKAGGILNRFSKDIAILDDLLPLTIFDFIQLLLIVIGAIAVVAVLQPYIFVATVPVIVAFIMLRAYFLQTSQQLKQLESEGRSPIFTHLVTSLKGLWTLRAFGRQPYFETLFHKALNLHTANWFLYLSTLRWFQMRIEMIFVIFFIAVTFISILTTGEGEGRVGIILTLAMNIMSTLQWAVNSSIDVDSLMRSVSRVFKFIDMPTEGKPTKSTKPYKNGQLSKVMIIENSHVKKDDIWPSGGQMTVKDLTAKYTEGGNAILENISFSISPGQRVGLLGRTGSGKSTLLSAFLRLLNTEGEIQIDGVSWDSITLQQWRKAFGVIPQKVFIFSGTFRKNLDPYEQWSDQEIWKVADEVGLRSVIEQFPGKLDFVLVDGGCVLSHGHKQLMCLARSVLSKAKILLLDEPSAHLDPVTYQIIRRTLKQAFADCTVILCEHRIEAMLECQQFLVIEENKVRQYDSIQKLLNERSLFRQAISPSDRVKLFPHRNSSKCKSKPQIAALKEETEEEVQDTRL
Kind of assay: Protocol 1: membrane potential optical assay (FLIPR III, voltage sensing dye), identification of potentiator compounds. The class given is cell-based. Particulars: Table 3, compounds of Table 1. In a few lines: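 NIH3T3 F508del cells, 27° C × 24 hrs; compound/DMSO pretreat → redistribution dye load → single forskolin addition with Cl⁻ gradient (gluconate-substituted bath, HEPES pH 7.4). FLIPR III membrane-potential fluorescence read.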
Turning to `CCOc1cccc2c1CN(Cc1c(C)cc(C)cc1C)C2(C)C(=O)NS(=O)(=O)c1ccc(N)nc1` (stereo not drawn) [Compound 1413, N-[(6-amino-3-pyridyl)sulfonyl]-4-ethoxy-1-methyl-2-[(2,4,6-trimethylphenyl)methyl]isoindoline-1-carboxamide], the EC30 result is recorded as “+++ (“+++” means <3 uM)”.

Turning to `CC1CN(c2ncccc2C(=O)NS(=O)(=O)c2cccc(NCc3ccc(Cl)cc3Cl)n2)C(C)(C)C1` (stereo not drawn) [Compound 1968, N—[[6-[(2,4-dichlorophenyl)methylamino]-2-pyridyl]sulfonyl]-2-(2,2,4-trimethylpyrrolidin-1-yl)pyridine-3-carboxamide], the EC30 result is listed as “+++ (“+++” means <3 uM)”.

In the case of `CC(C)COc1cc(F)cc(-c2ccc(C(=O)NS(=O)(=O)c3cccc(N)n3)c(OC(C)CC3CCOCC3)n2)c1` (stereo not drawn) [Compound 1361, N-[(6-amino-2-pyridyl)sulfonyl]-6-(3-fluoro-5-isobutoxy-phenyl)-2-(1-methyl-2-tetrahydropyran-4-yl-ethoxy)pyridine-3-carboxamide], the EC30 result is given as “+++ (“+++” means <3 uM)”.

As for `CC(C)COc1cc(F)cc(-c2ccc(C(=O)NS(=O)(=O)N[C@H]3CCNC3)c(N3C[C@@H](C)CC3(C)C)n2)c1` [Compound 1935, 6-(3-fluoro-5-isobutoxy-phenyl)-N—[[(3S)-pyrrolidin-3-yl]sulfamoyl]-2-[(4S)-2,2,4-trimethylpyrrolidin-1-yl]pyridine-3-carboxamide], the EC30 entry is “+++ (“+++” means <3 uM)”.

As for `C[C@@H]1CN(c2nc(C3=CC(C)(C)OCC3)ccc2C(=O)NS(=O)(=O)c2cccc(N)n2)C(C)(C)C1` [Compound 1369, N-[(6-amino-2-pyridyl)sulfonyl]-6-(6,6-dimethyl-2,3-dihydropyran-4-yl)-2-[(4S)-2,2,4-trimethylpyrrolidin-1-yl]pyridine-3-carboxamide], the EC30 result was “+++ (“+++” means <3 uM)”.

Regarding `Cc1cc(C)c(Oc2nc(-c3cnc(NC4CC4)nc3)ccc2C(=O)NS(=O)(=O)c2cccc(N)n2)c(C)c1` [Compound 1126, N-[(6-amino-2-pyridyl)sulfonyl]-6-[2-(cyclopropylamino)pyrimidin-5-yl]-2-(2,4,6-trimethylphenoxy)pyridine-3-carboxamide], the EC30 entry was “+ (“+” means greater than 10 uM)”.

For the molecule `Cc1cc(C)c(Cn2nc(C(C)(C)C)cc2C(=O)NS(=O)(=O)c2cccnc2N)c(C)c1` [Compound 1106, N-[(2-amino-3-pyridyl)sulfonyl]-5-tert-butyl-2-[(2,4,6-trimethylphenyl)methyl]pyrazole-3-carboxamide], the EC30 result is given as “+ (“+” means greater than 10 uM)”.

On to `Cc1ccc(NCC(C)C)nc1-c1ccc(C(=O)NS(=O)(=O)c2cccc(N)n2)c(N2CC(C)CC2(C)C)n1` (stereo not drawn) [Compound 1417, N-[(6-amino-2-pyridyl)sulfonyl]-6-[6-(isobutylamino)-3-methyl-2-pyridyl]-2-(2,2,4-trimethylpyrrolidin-1-yl)pyridine-3-carboxamide], for which the EC30 result was “++ (“++” means between 3 uM and 10 uM)”.

For the molecule `CC[C@H]1CN(c2nc(-c3cc(F)cc(OCC(C)C)c3)ccc2C(=O)NS(=O)(=O)c2cccc(N)n2)C(C)(C)C1` [Compound 1611, N-[(6-amino-2-pyridyl)sulfonyl]-2-[(4R)-4-ethyl-2,2-dimethyl-pyrrolidin-1-yl]-6-(3-fluoro-5-isobutoxy-phenyl)pyridine-3-carboxamide], the EC30 entry was “+++ (“+++” means <3 uM)”.

With `Cc1cc(C)c(Oc2nc(C(C)(C)C)ccc2C(=O)N=S(N)(=O)c2cccc(N)n2)c(C)c1` (stereo not drawn) [Compound 1602, N-[amino-(6-amino-2-pyridyl)-oxo-$1^6-sulfanylidene]-6-tert-butyl-2-(2,4,6-trimethylphenoxy)pyridine-3-carboxamide], the EC30 entry is “+++ (“+++” means <3 uM)”.

As to `CCN(CC)c1ccc(C)c(-c2ccc(C(=O)NS(=O)(=O)c3cccc(N)n3)c(N3CC(C)CC3(C)C)n2)n1` (stereo not drawn) [Compound 1383, N-[(6-amino-2-pyridyl)sulfonyl]-6-[6-(diethylamino)-3-methyl-2-pyridyl]-2-(2,2,4-trimethylpyrrolidin-1-yl)pyridine-3-carboxamide], the EC30 result is reported as “+++ (“+++” means <3 uM)”.

On to `CCCCOc1cccc(-c2ccc(C(=O)NS(=O)(=O)c3ccc[nH]c3=O)c(Oc3c(C)cc(C)cc3C)n2)c1Cl` [Compound 964, 6-(3-butoxy-2-chloro-phenyl)-N-[(2-oxo-1H-pyridin-3-yl)sulfonyl]-2-(2,4,6-trimethylphenoxy)pyridine-3-carboxamide], for which the EC30 result is listed as “+++ (“+++” means <3 uM)”.

`Cc1ccc(-c2ccc(C(=O)NS(=O)(=O)c3cccnc3N)c(N3C[C@@H](C)CC3(C)C)n2)c(O)c1` [Compound 1731, N-[(2-amino-3-pyridyl)sulfonyl]-6-(2-hydroxy-4-methyl-phenyl)-2-[(4S)-2,2,4-trimethylpyrrolidin-1-yl]pyridine-3-carboxamide]: the EC30 result is given as “+++ (“+++” means <3 uM)”.

Turning to `CC(=O)NC1CCN(S(=O)(=O)NC(=O)c2ccc(-c3cc(F)cc(OCC(C)C)c3)nc2N2CC(C)CC2(C)C)C1` (stereo not drawn) [Compound 1391, N-(3-acetamidopyrrolidin-1-yl)sulfonyl-6-(3-fluoro-5-isobutoxy-phenyl)-2-(2,2,4-trimethylpyrrolidin-1-yl)pyridine-3-carboxamide], the EC30 result is “+++ (“+++” means <3 uM)”.

On to `CCC1CCN(c2nc(-c3cc(F)cc(OCC(C)C)c3)ccc2C(=O)NS(=O)(=O)c2cccc(N)n2)C1` (stereo not drawn) [Compound 931, N-[(6-amino-2-pyridyl)sulfonyl]-2-(3-ethylpyrrolidin-1-yl)-6-(3-fluoro-5-isobutoxy-phenyl)pyridine-3-carboxamide], for which the EC30 result was “+++ (“+++” means <3 uM)”.

On to `COc1cccc(CN(C)c2cccc(S(=O)(=O)NC(=O)c3cccnc3N3CC(C)CC3(C)C)n2)c1` (stereo not drawn) [Compound 1940, N—[[6-[(3-methoxyphenyl)methyl-methyl-amino]-2-pyridyl]sulfonyl]-2-(2,2,4-trimethylpyrrolidin-1-yl)pyridine-3-carboxamide], for which the EC30 entry is reported as “+++ (“+++” means <3 uM)”.

`Cc1cc(C)c(Oc2nc(-c3ccc(O)cc3C)ccc2C(=O)NS(=O)(=O)c2cccc(N)n2)c(C)c1` [Compound 1204, N-[(6-amino-2-pyridyl)sulfonyl]-6-(4-hydroxy-2-methyl-phenyl)-2-(2,4,6-trimethylphenoxy)pyridine-3-carboxamide]: the EC30 result is reported as “+ (“+” means greater than 10 uM)”.

Take `CC(C)COc1cc(F)cc(-c2ccc(C(=O)NS(=O)(=O)c3cccc(N)n3)c(OCCc3ccccc3)n2)c1` [Compound 1426, N-[(6-amino-2-pyridyl)sulfonyl]-6-(3-fluoro-5-isobutoxy-phenyl)-2-phenethyloxy-pyridine-3-carboxamide]: the EC30 entry is on record as “+++ (“+++” means <3 uM)”.

Turning to `Cc1cc(C)c(Oc2nc(-c3ccccc3Cl)ccc2C(=O)NS(=O)(=O)c2ccc[nH]c2=O)c(C)c1` [Compound 877, 6-(2-chlorophenyl)-N-[(2-oxo-1H-pyridin-3-yl)sulfonyl]-2-(2,4,6-trimethylphenoxy)pyridine-3-carboxamide], the EC30 entry is on record as “+++ (“+++” means <3 uM)”.

Consider `COc1ccc(COc2cccc(S(=O)(=O)NC(=O)c3cccnc3N3CC(C)CC3(C)C)n2)cc1Cl` (stereo not drawn) [Compound 1778, N—[[6-[(3-chloro-4-methoxy-phenyl)methoxy]-2-pyridyl]sulfonyl]-2-(2,2,4-trimethylpyrrolidin-1-yl)pyridine-3-carboxamide], for which the EC30 entry was “+++ (“+++” means <3 uM)”.

Consider `C[C@@H]1CN(c2nc(C3=CCCN(C(=O)OC(C)(C)C)C3)ccc2C(=O)NS(=O)(=O)c2cccc(N)n2)C(C)(C)C1` [Compound 1371, tert-butyl 5-[5-[(6-amino-2-pyridyl)sulfonylcarbamoyl]-6-[(4S)-2,2,4-trimethylpyrrolidin-1-yl]-2-pyridyl]-3,6-dihydro-2H-pyridine-1-carboxylate], for which the EC30 result is on record as “+++ (“+++” means <3 uM)”.

With `Cc1ccc(C)c(-c2ccc(C(=O)NS(=O)(=O)c3cccnc3N)c(N3C[C@@H](C)CC3(C)C)n2)c1` [Compound 1951, N-[(2-amino-3-pyridyl)sulfonyl]-6-(2,5-dimethylphenyl)-2-[(4S)-2,2,4-trimethylpyrrolidin-1-yl]pyridine-3-carboxamide], the EC30 result is “+++ (“+++” means <3 uM)”.

Turning to `Cc1cn(-c2ccc(C(=O)NS(=O)(=O)c3cccnc3N)c(N3C[C@@H](C)CC3(C)C)n2)nc1OCC(C)C` [Compound 1758, N-[(2-amino-3-pyridyl)sulfonyl]-6-(3-isobutoxy-4-methyl-pyrazol-1-yl)-2-[(4S)-2,2,4-trimethylpyrrolidin-1-yl]pyridine-3-carboxamide], the EC30 entry is “+++ (“+++” means <3 uM)”.

With `CC(C)Oc1ccc(-c2ccc(C(=O)NS(=O)(=O)c3cccc(N)n3)c(N3CCC[C@H](C)C3)n2)cn1` [Compound 836, N-[(6-amino-2-pyridyl)sulfonyl]-6-(6-isopropoxy-3-pyridyl)-2-[(3S)-3-methyl-1-piperidyl]pyridine-3-carboxamide], the EC30 entry was “++ (“++” means between 3 uM and 10 uM)”.

As to `Cc1cc(OCC(C)C)nn1-c1ccc(C(=O)NS(=O)(=O)c2cccc(N)n2)c(N2C[C@@H](C)CC2(C)C)n1` [Compound 1407, N-[(6-amino-2-pyridyl)sulfonyl]-6-(3-isobutoxy-5-methyl-pyrazol-1-yl)-2-[(4S)-2,2,4-trimethylpyrrolidin-1-yl]pyridine-3-carboxamide], the EC30 entry is “+++ (“+++” means <3 uM)”.

`CCOc1ccc(Oc2cccc(S(=O)(=O)NC(=O)c3cccnc3N3CC(C)CC3(C)C)n2)cc1` (stereo not drawn) [Compound 1924, N—[[6-(4-ethoxyphenoxy)-2-pyridyl]sulfonyl]-2-(2,2,4-trimethylpyrrolidin-1-yl)pyridine-3-carboxamide]: the EC30 result is “+++ (“+++” means <3 uM)”.

Regarding `CC(C)COc1cc(F)cc(-c2ccc(C(=O)NS(=O)(=O)c3ccn[nH]3)c(N3CC(C)OC(C)C3)n2)c1` (stereo not drawn) [Compound 1119, 2-(2,6-dimethylmorpholin-4-yl)-6-(3-fluoro-5-isobutoxy-phenyl)-N-(1H-pyrazol-5-ylsulfonyl)pyridine-3-carboxamide], the EC30 entry was “++ (“++” means between 3 uM and 10 uM)”.
